Data published in patent US20230017045A1, “PYRIDINE AND PYRIMIDINE CARBOXYLATE HERBICIDES AND METHODS OF USE THEREOF” (Dow AgroSciences LLC, priority 2017, published 2023).

test system: test plant species; test: Post-emergent herbicidal activity test (greenhouse, foliar spray, visual growth reduction); format: in vivo; details: post-emergence, 336 h, ECHCG: barnyardgrass (Echinochloa crus-galli), 140 g ai/ha, 14 days after application, read-out: Visual Growth Reduction (%) 14 Days After Application, ECHCG
Summary of the method: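 Plants grown in greenhouse (15 h photoperiod, 23-29° C day/22-28° C night) to first or second true leaf stage were sprayed overhead with compound in acetone/water/isopropanol/DMSO/crop oil/X-77 carrier at 187 L/ha. Injury was scored visually after 14 d on a 0-100% scale versus solvent-blank and untreated controls.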

Compound	pest or weed control at 140 g/ha [%]
COC(=O)c1nc(-c2cc(F)c(C(F)(F)F)cc2F)c(F)cc1Cl [F324, Methyl 3-chloro-6-(2,5-difluoro-4-(trifluoromethyl)phenyl)-5-fluoropicolinate]	0 to 29
N#Cc1cc(-c2nc(C(=O)O)c(Cl)cc2F)c(Cl)cc1C(F)(F)F [F329, 3-Chloro-6-(2-chloro-5-cyano-4-(trifluoromethyl)phenyl)-5-fluoropicolinic acid]	60 to 74

same assay, conditions: post-emergence, 336 h, IPOHE: ivy-leaf morning glory (Ipomoea hederacea), 140 g ai/ha, 14 days after application, read-out: Visual Growth Reduction (%) 14 Days After Application, IPOHE

Compound	pest or weed control at 140 g/ha [%]
COC(=O)c1nc(-c2cc(F)c(C(F)(F)F)cc2F)c(F)cc1Cl [F324, Methyl 3-chloro-6-(2,5-difluoro-4-(trifluoromethyl)phenyl)-5-fluoropicolinate]	95 to 100
N#Cc1cc(-c2nc(C(=O)O)c(Cl)cc2F)c(Cl)cc1C(F)(F)F [F329, 3-Chloro-6-(2-chloro-5-cyano-4-(trifluoromethyl)phenyl)-5-fluoropicolinic acid]	95 to 100

same assay, conditions: post-emergence, 336 h, KCHSC: kochia (Bassia scoparia), 140 g ai/ha, 14 days after application, read-out: Visual Growth Reduction (%) 14 Days After Application, KCHSC

Compound	pest or weed control at 140 g/ha [%]
COC(=O)c1nc(-c2cc(F)c(C(F)(F)F)cc2F)c(F)cc1Cl [F324, Methyl 3-chloro-6-(2,5-difluoro-4-(trifluoromethyl)phenyl)-5-fluoropicolinate]	85 to 94
N#Cc1cc(-c2nc(C(=O)O)c(Cl)cc2F)c(Cl)cc1C(F)(F)F [F329, 3-Chloro-6-(2-chloro-5-cyano-4-(trifluoromethyl)phenyl)-5-fluoropicolinic acid]	60 to 74

same assay, conditions: post-emergence, 336 h, ORYSA: rice (Oryza sativa), 140 g ai/ha, 14 days after application, read-out: Visual Growth Reduction (%) 14 Days After Application, ORYSA

Compound	pest or weed control at 140 g/ha [%]
COC(=O)c1nc(-c2cc(F)c(C(F)(F)F)cc2F)c(F)cc1Cl [F324, Methyl 3-chloro-6-(2,5-difluoro-4-(trifluoromethyl)phenyl)-5-fluoropicolinate]	0 to 29
N#Cc1cc(-c2nc(C(=O)O)c(Cl)cc2F)c(Cl)cc1C(F)(F)F [F329, 3-Chloro-6-(2-chloro-5-cyano-4-(trifluoromethyl)phenyl)-5-fluoropicolinic acid]	0 to 29

same assay, conditions: post-emergence, 336 h, SETFA: giant foxtail (Setaria faberi), 140 g ai/ha, 14 days after application, read-out: Visual Growth Reduction (%) 14 Days After Application, SETFA

Compound	pest or weed control at 140 g/ha [%]
COC(=O)c1nc(-c2cc(F)c(C(F)(F)F)cc2F)c(F)cc1Cl [F324, Methyl 3-chloro-6-(2,5-difluoro-4-(trifluoromethyl)phenyl)-5-fluoropicolinate]	60 to 74
N#Cc1cc(-c2nc(C(=O)O)c(Cl)cc2F)c(Cl)cc1C(F)(F)F [F329, 3-Chloro-6-(2-chloro-5-cyano-4-(trifluoromethyl)phenyl)-5-fluoropicolinic acid]	85 to 94

same assay, conditions: post-emergence, 336 h, SORVU: grain sorghum (Sorghum vulgare), 140 g ai/ha, 14 days after application, read-out: Visual Growth Reduction (%) 14 Days After Application, SORVU

Compound	pest or weed control at 140 g/ha [%]
COC(=O)c1nc(-c2cc(F)c(C(F)(F)F)cc2F)c(F)cc1Cl [F324, Methyl 3-chloro-6-(2,5-difluoro-4-(trifluoromethyl)phenyl)-5-fluoropicolinate]	75 to 84
N#Cc1cc(-c2nc(C(=O)O)c(Cl)cc2F)c(Cl)cc1C(F)(F)F [F329, 3-Chloro-6-(2-chloro-5-cyano-4-(trifluoromethyl)phenyl)-5-fluoropicolinic acid]	75 to 84

same assay, conditions: post-emergence, 336 h, STEME: common chickweed (Stellaria media), 140 g ai/ha, 14 days after application, read-out: Visual Growth Reduction (%) 14 Days After Application, STEME

Compound	pest or weed control at 140 g/ha [%]
COC(=O)c1nc(-c2cc(F)c(C(F)(F)F)cc2F)c(F)cc1Cl [F324, Methyl 3-chloro-6-(2,5-difluoro-4-(trifluoromethyl)phenyl)-5-fluoropicolinate]	0 to 29
N#Cc1cc(-c2nc(C(=O)O)c(Cl)cc2F)c(Cl)cc1C(F)(F)F [F329, 3-Chloro-6-(2-chloro-5-cyano-4-(trifluoromethyl)phenyl)-5-fluoropicolinic acid]	0 to 29

same assay, conditions: post-emergence, 336 h, TRZAS: wheat, spring (Triticum aestivum), 140 g ai/ha, 14 days after application, read-out: Visual Growth Reduction (%) 14 Days After Application, TRZAS

Compound	pest or weed control at 140 g/ha [%]
COC(=O)c1nc(-c2cc(F)c(C(F)(F)F)cc2F)c(F)cc1Cl [F324, Methyl 3-chloro-6-(2,5-difluoro-4-(trifluoromethyl)phenyl)-5-fluoropicolinate]	45 to 59
N#Cc1cc(-c2nc(C(=O)O)c(Cl)cc2F)c(Cl)cc1C(F)(F)F [F329, 3-Chloro-6-(2-chloro-5-cyano-4-(trifluoromethyl)phenyl)-5-fluoropicolinic acid]	45 to 59

same assay, conditions: post-emergence, 336 h, blackgrass (Alopecurus myosuroides), 14 Days After Application, 140 g ai/ha, read-out: Visual Growth Reduction (%) ALOMY

Compound	pest or weed control at 140 g/ha [%]
COC(=O)c1nc(-c2cc(F)c(C(F)(F)F)cc2F)c(F)cc1Cl [F324, Methyl 3-chloro-6-(2,5-difluoro-4-(trifluoromethyl)phenyl)-5-fluoropicolinate]	30 to 44
N#Cc1cc(-c2nc(C(=O)O)c(Cl)cc2F)c(Cl)cc1C(F)(F)F [F329, 3-Chloro-6-(2-chloro-5-cyano-4-(trifluoromethyl)phenyl)-5-fluoropicolinic acid]	0 to 29

same assay, conditions: post-emergence, 336 h, canada thistle (Cirsium arvense), 14 Days After Application, 140 g ai/ha, read-out: Visual Growth Reduction (%) CIRAR

Compound	pest or weed control at 140 g/ha [%]
N#Cc1cc(-c2nc(C(=O)O)c(Cl)cc2F)c(Cl)cc1C(F)(F)F [F329, 3-Chloro-6-(2-chloro-5-cyano-4-(trifluoromethyl)phenyl)-5-fluoropicolinic acid]	85 to 94

same assay, conditions: post-emergence, 336 h, crabgrass (Digitaria sanguinalis), 14 Days After Application, 140 g ai/ha, read-out: Visual Growth Reduction (%) DIGSA

Compound	pest or weed control at 140 g/ha [%]
COC(=O)c1nc(-c2cc(F)c(C(F)(F)F)cc2F)c(F)cc1Cl [F324, Methyl 3-chloro-6-(2,5-difluoro-4-(trifluoromethyl)phenyl)-5-fluoropicolinate]	95 to 100
N#Cc1cc(-c2nc(C(=O)O)c(Cl)cc2F)c(Cl)cc1C(F)(F)F [F329, 3-Chloro-6-(2-chloro-5-cyano-4-(trifluoromethyl)phenyl)-5-fluoropicolinic acid]	75 to 84

same assay, conditions: post-emergence, 336 h, lambsquarters (Chenopodium album), 14 Days After Application, 140 g ai/ha, read-out: Visual Growth Reduction (%) CHEAL

Compound	pest or weed control at 140 g/ha [%]
COC(=O)c1nc(-c2cc(F)c(C(F)(F)F)cc2F)c(F)cc1Cl [F324, Methyl 3-chloro-6-(2,5-difluoro-4-(trifluoromethyl)phenyl)-5-fluoropicolinate]	85 to 94
N#Cc1cc(-c2nc(C(=O)O)c(Cl)cc2F)c(Cl)cc1C(F)(F)F [F329, 3-Chloro-6-(2-chloro-5-cyano-4-(trifluoromethyl)phenyl)-5-fluoropicolinic acid]	75 to 84

same assay, conditions: post-emergence, 336 h, redroot pigweed (Amaranthus retroflexus), 14 Days After Application, 140 g ai/ha, read-out: Visual Growth Reduction (%) AMARE

Compound	pest or weed control at 140 g/ha [%]
COC(=O)c1nc(-c2cc(F)c(C(F)(F)F)cc2F)c(F)cc1Cl [F324, Methyl 3-chloro-6-(2,5-difluoro-4-(trifluoromethyl)phenyl)-5-fluoropicolinate]	95 to 100
N#Cc1cc(-c2nc(C(=O)O)c(Cl)cc2F)c(Cl)cc1C(F)(F)F [F329, 3-Chloro-6-(2-chloro-5-cyano-4-(trifluoromethyl)phenyl)-5-fluoropicolinic acid]	60 to 74

same assay, conditions: post-emergence, 336 h, wild oat (Avena fatua), 14 Days After Application, 140 g ai/ha, read-out: Visual Growth Reduction (%) AVEFA

Compound	pest or weed control at 140 g/ha [%]
COC(=O)c1nc(-c2cc(F)c(C(F)(F)F)cc2F)c(F)cc1Cl [F324, Methyl 3-chloro-6-(2,5-difluoro-4-(trifluoromethyl)phenyl)-5-fluoropicolinate]	30 to 44
N#Cc1cc(-c2nc(C(=O)O)c(Cl)cc2F)c(Cl)cc1C(F)(F)F [F329, 3-Chloro-6-(2-chloro-5-cyano-4-(trifluoromethyl)phenyl)-5-fluoropicolinic acid]	60 to 74

same assay, conditions: post-emergence, 336 h, yellow nutsedge (Cyperus esculentus), 14 Days After Application, 140 g ai/ha, read-out: Visual Growth Reduction (%) CYPES

Compound	pest or weed control at 140 g/ha [%]
COC(=O)c1nc(-c2cc(F)c(C(F)(F)F)cc2F)c(F)cc1Cl [F324, Methyl 3-chloro-6-(2,5-difluoro-4-(trifluoromethyl)phenyl)-5-fluoropicolinate]	60 to 74
N#Cc1cc(-c2nc(C(=O)O)c(Cl)cc2F)c(Cl)cc1C(F)(F)F [F329, 3-Chloro-6-(2-chloro-5-cyano-4-(trifluoromethyl)phenyl)-5-fluoropicolinic acid]	0 to 29
